Laboratory results: PMC10885153, “Membrane Permeability in a Large Macrocyclic Peptide Driven by a Saddle-Shaped Conformation” (Journal of the American Chemical Society, 2024)
Positions of bridges follow the written chain, without caps; N, C: chain ends. Non-standard residues stand in square brackets, D forms with d. Residues, ends and D or L forms follow the SMILES beside them. Cha = N[C@@H](CC1CCCCC1)C(=O)O; NMeC = CN[C@@H](CS)C(=O)O; NMeA = CN[C@@H](C)C(=O)O; Nva = CCC[C@H](N)C(=O)O; Abu = CC[C@H](N)C(=O)O; NPrGly = CCCNCC(=O)O; NEtG = CCNCC(=O)O

Conditions: PAMPA, 10 µM, pH 7.4
Method: Passive permeabilities of the 36 compounds were measured in multiplex as mixtures of six compounds each using the parallel artificial membrane permeability assay (PAMPA).[44]−[46]
Protocol is identical for both mixture and pure compound analysis.
Two of the following: Carbamazepine (CBZ), propranolol (Prop), and 1NMe35 were
included as internal standards and prepared as DMSO stocks at a concentration of 2 000 µM.
assay was carried out with a 96-well donor plate with 0.45 μ hydrophobic Immobilon-P membrane supports
(Millipore MAIPNTR10) and a 96-well Teflon acceptor plate (Millipore MSSACCEPTOR).
protocol then proceeded as follows:
Donor well solutions were prepared to a volume of 1 000 µL with the analytes as a solution in 1X
PBS pH 7.4 and 5% DMSO. To a 3 mL Eppendorf tube was added 950 µL of 1X PBS pH 7.4, 40
The solutions were vortexed and set aside.
Analyte – 10 µM per compound
A 1% solution of soy lecithin in dodecane was freshly prepared in a 3 mL Eppendorf tube and
sonicated (5 min) to ensure full dissolution of the lecithin. The donor membrane plate was turned
upside down and bottom of the membranes exposed. 5 µL of the 1% soy lecithin solution in
dodecane was then placed on the bottom of the membrane, allowing the drop to spread across the
full area of the membrane. Any membranes with visible damage were not used in the assay.
membranes were allowed to equilibrate for 5 min before loading.
Each well within the Teflon block acceptor plate that was to be used in the assay was then loaded
with 300 µL of 1X PBS pH 7.4 and 5% DMSO.
Working without break, 150 µL of each donor well solution was transferred from the to the 96-well
donor plate. Each mixture of interest was r un in quadruplicate, using a new well for each replicate.
As soon as the 96-well donor plate was finished being loaded, it was gently placed into the 96-well
Teflon acceptor plate, taking care not to trap any air bubbles beneath the membrane.
The donor/acceptor plates were covered gently with the lid to minimize evaporation and transferred
gently as a system to a sealed chamber and left to sit overnight at room temperature. The chamber
was kept from drying by placing a wet paper towel within to prevent evaporation.
After ~19-20 hours the donor plate was removed from the acceptor plate.
50 µL of each well (donor and acceptor) were transferred to a 96 -well plate and diluted with 50 µL
of methanol prior to heat sealing and quantification by UPLC -MS.

Compound	%R_avg	Pe_avg
CCC[C@@H]1NC(=O)[C@H](C)N(C)C(=O)[C@H](CC(C)C)NC(=O)CSC[C@@H](C(=O)OCC)N(C)C(=O)[C@H](CC(C)C)NC(=O)[C@H](C)N(C)C(=O)[C@H](CC(C)C)NC(=O)CN(CC)C(=O)[C@H]2CCCN2C1=O [LA05, O=C(N(C)[C@H](C(OCC)=O)CSCC(N[C@H](C(N(C)[C@@H](C)C(N[C@@H](CCC)C(N1[C@H](CCC1)C(N(CC)CC(N[C@H]2CC(C)C)=O)=O)=O)=O)=O)CC(C)C)=O)[C@H](CC(C)C)NC([C@H](C)N(C)C2=O)=O] ({CH2CO}-L[NMeA][Nva][dP][NEtG]L[NMeA]L[NMeC]-OEt; thioether N-9)	12.8%	–
CCOC(=O)[C@@H]1CSCC(=O)N[C@@H](CC(C)C)C(=O)N(C)[C@@H](C)C(=O)N[C@@H](CC(C)C)C(=O)N2CCC[C@@H]2C(=O)N(CC)CC(=O)N[C@@H](CC(C)C)C(=O)N(C)[C@@H](C)C(=O)N[C@@H](CC(C)C)C(=O)N1C [LA06, O=C(N(C)[C@H](C(OCC)=O)CSCC(N[C@H](C(N(C)[C@@H](C)C(N[C@@H](CC(C)C)C(N1[C@H](CCC1)C(N(CC)CC(N[C@H]2CC(C)C)=O)=O)=O)=O)=O)CC(C)C)=O)[C@H](CC(C)C)NC([C@H](C)N(C)C2=O)=O] ({CH2CO}-L[NMeA]L[dP][NEtG]L[NMeA]L[NMeC]-OEt; thioether N-9)	5.1%	–
CCOC(=O)[C@@H]1CSCC(=O)N[C@@H](CC(C)C)C(=O)N(C)[C@@H](C)C(=O)N[C@@H](CC(C)C)C(=O)N2CCC[C@@H]2C(=O)N(CC)CC(=O)N[C@@H](CC2CCCCC2)C(=O)N(C)[C@@H](C)C(=O)N[C@@H](CC(C)C)C(=O)N1C [LA10, O=C(N(C)[C@H](C(OCC)=O)CSCC(N[C@H](C(N(C)[C@@H](C)C(N[C@@H](CC(C)C)C(N1[C@H](CCC1)C(N(CC)CC(N[C@H]2CC3CCCCC3)=O)=O)=O)=O)=O)CC(C)C)=O)[C@H](CC(C)C)NC([C@H](C)N(C)C2=O)=O] ({CH2CO}-L[NMeA]L[dP][NEtG][Cha][NMeA]L[NMeC]-OEt; thioether N-9)	13.0%	0 ×10⁻⁶ cm/s
CCC[C@@H]1NC(=O)[C@H](C)N(C)C(=O)[C@H](CC(C)C)NC(=O)CSC[C@@H](C(=O)OCC)N(C)C(=O)[C@H](CC(C)C)NC(=O)[C@H](C)N(C)C(=O)[C@H](CC2CCCCC2)NC(=O)CN(CCC)C(=O)[C@H]2CCCN2C1=O [LA11, O=C(N(C)[C@H](C(OCC)=O)CSCC(N[C@H](C(N(C)[C@@H](C)C(N[C@@H](CCC)C(N1[C@H](CCC1)C(N(CCC)CC(N[C@H]2CC3CCCCC3)=O)=O)=O)=O)=O)CC(C)C)=O)[C@H](CC(C)C)NC([C@H](C)N(C)C2=O)=O] ({CH2CO}-L[NMeA][Nva][dP][NPrGly][Cha][NMeA]L[NMeC]-OEt; thioether N-9)	6.5%	–
CCCN1CC(=O)N[C@@H](CC2CCCCC2)C(=O)N(C)[C@@H](C)C(=O)N[C@@H](CC(C)C)C(=O)N(C)[C@H](C(=O)OCC)CSCC(=O)N[C@@H](CC(C)C)C(=O)N(C)[C@@H](C)C(=O)N[C@@H](CC(C)C)C(=O)N2CCC[C@@H]2C1=O [LA12, O=C(N(C)[C@H](C(OCC)=O)CSCC(N[C@H](C(N(C)[C@@H](C)C(N[C@@H](CC(C)C)C(N1[C@H](CCC1)C(N(CCC)CC(N[C@H]2CC3CCCCC3)=O)=O)=O)=O)=O)CC(C)C)=O)[C@H](CC(C)C)NC([C@H](C)N(C)C2=O)=O] ({CH2CO}-L[NMeA]L[dP][NPrGly][Cha][NMeA]L[NMeC]-OEt; thioether N-9)	9.2%	0 ×10⁻⁶ cm/s
CCC[C@@H]1NC(=O)CN(CC)C(=O)[C@H](CC(C)C)NC(=O)CSC[C@@H](C(=O)OCC)N(C)C(=O)[C@H](CC(C)C)NC(=O)[C@H](C)N(C)C(=O)[C@H](CC)NC(=O)[C@H](C)N(C)C(=O)[C@H]2CCCN2C1=O [LB01, O=C(N(C)[C@H](C(OCC)=O)CSCC(N[C@H](C1=O)CC(C)C)=O)[C@H](CC(C)C)NC([C@H](C)N(C)C([C@H](CC)NC([C@H](C)N(C)C([C@@H]2N(C([C@H](CCC)NC(CN1CC)=O)=O)CCC2)=O)=O)=O)=O] ({CH2CO}-L[NEtG][Nva][dP][NMeA][Abu][NMeA]L[NMeC]-OEt; thioether N-9)	62.4%	–
